Results reported in patent US8895733B2 (Novartis AG, priority 2010, dated 2014).

How the values were obtained:
Nav 1.7 [1] = biological target: T1, Nav 1.7 (Homo sapiens, UniProt Q15858); assay: Whole-cell voltage clamp electrophysiology, manual patch clamp (marker b in Table of Examples); format: cell-based; conditions: marker b: Manual patch clamp data; read-out: Nav 1.7 activity
T1 construct: expressed in transfected cells
Outline: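 Manual whole-cell patch clamp on cells expressing human NaV1.7, compounds applied by microperfusion. Protocol biased to inactivated-state block: holding −60 mV, hyperpolarizing step −120 mV for 100 ms, then depolarization to −20 mV for 25 ms, pulses at 0.1 Hz.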

Nav1.5 [2] = biological target: T2, Nav1.5 (Homo sapiens, UniProt Q14524); assay: Inhibition of Nav1.5 as measured using QPatch; format: cell-based
T2 construct: expressed in transfected cells
Description: (§1) Patch-clamp electrophysiology is considered the gold standard technique for investigation of ion channel function and pharmacology. Using this method, sodium channel currents can be measured in cells, which stably (or transiently) express the sodium channel subtype of interest. Application of compounds during such experiments provides a functional measure of the activity and potency of compounds affecting the ion channel of interest.
Electrophysiological studies can be performed using automated or manual patch-clamp techniques. Automated patch-clamp instruments suitable for this work include the Ion Works HT (MDS), Ion Works Quattro (MDS), PatchLiner (Nanion technologies), Port-A-Patch (Nanion technologies), QPatch (Sophion) or any other suitable platform.
For recording in automated patch-clamp instruments, cells expressing the voltage-gated sodium channel subtype of interest are dispensed in appropriate chips (plates with more than one recording chambers each containing one or more apertures to generate whole-cell patches), as provided by the manufacturer. Typically, the whole-cell perforated patch configuration is used for probing the pharmacology of compounds in automated patch-clamp electrophysiology on sodium channels. Extracellular and intracellular buffers for such experiments are composed according to the literature, or according to the instructions provided by the manufacturer of the instruments. Test solutions, which contain the compounds to be tested, are applied to the cells expressing the sodium channel of interest by a pipetting system, typically integrated into the robots.
(§2) A suitable voltage stimulus protocol is used to activate voltage-gated sodium channel proteins of interest. A typical stimulus protocol may consist of sweeps of sequential voltage pulses starting from a holding potential (i.e. −65 mV), to a more positive and depolarising test pulse potential (i.e. −10 mV) and finally to a more negative and hyperpolarising potential (i.e. −100 mV). According to the biophysics of the voltage-gated ion channel of interest and interest in channel configuration the voltages and durations of the pulses as well as the overall frequency of sweeps applied might vary. Accordingly, a stimulus protocol was designed to assess compounds due to their potential to block NaV1.7 channels primarily in inactivated state. Selectivity over other voltage-gated sodium channel members was assessed by protocols that reflect the native function of the channels (i.e. heart rate or firing of neurons).
Inhibition of Nav1.5 by Compounds of formula (I) as measured using QPatch

[3] = test system: inflammatory pain induced by intraplantar injection of Complete Freund's Adjuvant; assay: FCA (Freund's Complete Adjuvant) test, model of inflammatory pain; format: in vivo; conditions: rat, tested 72 h post FCA injection
Description: Compounds of formula (I) may show analgesic activity in the FCA (Freund's Complete Adjuvant) test in the rat, a model of inflammatory pain which is induced by intraplantar injection of Complete Freund's Adjuvant (Stein et al. Pharmac. Biochem. Behav., 1988, 31, 445-451). […] Thus, the local anesthetic effect may not mask the analgesic properties of the compounds (Scott et al., British Journal of Anaesthesia, 1988, 61, 165-8). […] All compounds were tested 72 h post FCA injection.

Nav1.5 [4] = biological target: T2, Nav1.5; assay: Inhibition of Nav1.5 as measured using manual patch clamp; format: cell-based
Description: as §1
Electrophysiological studies can also be performed using the whole cell configuration of the standard manual patch clamp technique as described in the literature (e.g. Pflugers Arch., 1981, 391(2), 85-100). In this assay, cells that express the voltage-gated sodium channel protein of interest are exposed to the drugs by conventional microperfusion systems, or by a home-built perfusion system. A suitable voltage stimulus protocol is used to activate the voltage-gated sodium channels.
as §2
Electrophysiological studies can also be performed using the whole cell configuration of the standard manual patch clamp technique as described in the literature (e.g. Pflugers Arch., 1981, 391(2), 85-100). In this assay, cells that express the human voltage-gated sodium channel protein of interest are exposed to the drugs by conventional microperfusion systems, or by a home-built perfusion system. A suitable voltage stimulus protocol is used to activate the voltage-gated sodium channels. A suitable voltage stimulus protocol may consist of sequential voltage pulses from a holding potential, each first hyperpolarizing the cell, then depolarizing the channels for a brief period. A particularly suitable holding potential may be a voltage allowing a fraction of channels to remain in an inactivated state, like −60 mV. A suitable hyperpolarizing voltage and duration may be −120 mV for 100 ms, and depolarization voltage and duration may be −20 mV for 25 ms, and a suitable frequency of pulses may be 0.1 Hz, but may also have other parameters. Accordingly, a stimulus protocol was designed to assess compounds due to their potential to block NaV1.7 channels primarily in inactivated state. Selectivity over other voltage-gated sodium channel members was assessed by protocols that reflect the native function of the channels (i.e. heart rate or firing of neurons).
Inhibition of Nav1.5 by Compounds of formula (I) as measured using manual patch clamp

Nav 1.7 [5] = biological target: T1, Nav 1.7; assay: Nav 1.7 activity in Table of Examples, no platform marker printed; format: cell-based; conditions: no marker a/b/c printed in the cell
Description: a.IonWork Quattro data, b=Manual patch clamp data, c=Automated patch clamp data M=Method

T2 sequence (Q14524 whole entry): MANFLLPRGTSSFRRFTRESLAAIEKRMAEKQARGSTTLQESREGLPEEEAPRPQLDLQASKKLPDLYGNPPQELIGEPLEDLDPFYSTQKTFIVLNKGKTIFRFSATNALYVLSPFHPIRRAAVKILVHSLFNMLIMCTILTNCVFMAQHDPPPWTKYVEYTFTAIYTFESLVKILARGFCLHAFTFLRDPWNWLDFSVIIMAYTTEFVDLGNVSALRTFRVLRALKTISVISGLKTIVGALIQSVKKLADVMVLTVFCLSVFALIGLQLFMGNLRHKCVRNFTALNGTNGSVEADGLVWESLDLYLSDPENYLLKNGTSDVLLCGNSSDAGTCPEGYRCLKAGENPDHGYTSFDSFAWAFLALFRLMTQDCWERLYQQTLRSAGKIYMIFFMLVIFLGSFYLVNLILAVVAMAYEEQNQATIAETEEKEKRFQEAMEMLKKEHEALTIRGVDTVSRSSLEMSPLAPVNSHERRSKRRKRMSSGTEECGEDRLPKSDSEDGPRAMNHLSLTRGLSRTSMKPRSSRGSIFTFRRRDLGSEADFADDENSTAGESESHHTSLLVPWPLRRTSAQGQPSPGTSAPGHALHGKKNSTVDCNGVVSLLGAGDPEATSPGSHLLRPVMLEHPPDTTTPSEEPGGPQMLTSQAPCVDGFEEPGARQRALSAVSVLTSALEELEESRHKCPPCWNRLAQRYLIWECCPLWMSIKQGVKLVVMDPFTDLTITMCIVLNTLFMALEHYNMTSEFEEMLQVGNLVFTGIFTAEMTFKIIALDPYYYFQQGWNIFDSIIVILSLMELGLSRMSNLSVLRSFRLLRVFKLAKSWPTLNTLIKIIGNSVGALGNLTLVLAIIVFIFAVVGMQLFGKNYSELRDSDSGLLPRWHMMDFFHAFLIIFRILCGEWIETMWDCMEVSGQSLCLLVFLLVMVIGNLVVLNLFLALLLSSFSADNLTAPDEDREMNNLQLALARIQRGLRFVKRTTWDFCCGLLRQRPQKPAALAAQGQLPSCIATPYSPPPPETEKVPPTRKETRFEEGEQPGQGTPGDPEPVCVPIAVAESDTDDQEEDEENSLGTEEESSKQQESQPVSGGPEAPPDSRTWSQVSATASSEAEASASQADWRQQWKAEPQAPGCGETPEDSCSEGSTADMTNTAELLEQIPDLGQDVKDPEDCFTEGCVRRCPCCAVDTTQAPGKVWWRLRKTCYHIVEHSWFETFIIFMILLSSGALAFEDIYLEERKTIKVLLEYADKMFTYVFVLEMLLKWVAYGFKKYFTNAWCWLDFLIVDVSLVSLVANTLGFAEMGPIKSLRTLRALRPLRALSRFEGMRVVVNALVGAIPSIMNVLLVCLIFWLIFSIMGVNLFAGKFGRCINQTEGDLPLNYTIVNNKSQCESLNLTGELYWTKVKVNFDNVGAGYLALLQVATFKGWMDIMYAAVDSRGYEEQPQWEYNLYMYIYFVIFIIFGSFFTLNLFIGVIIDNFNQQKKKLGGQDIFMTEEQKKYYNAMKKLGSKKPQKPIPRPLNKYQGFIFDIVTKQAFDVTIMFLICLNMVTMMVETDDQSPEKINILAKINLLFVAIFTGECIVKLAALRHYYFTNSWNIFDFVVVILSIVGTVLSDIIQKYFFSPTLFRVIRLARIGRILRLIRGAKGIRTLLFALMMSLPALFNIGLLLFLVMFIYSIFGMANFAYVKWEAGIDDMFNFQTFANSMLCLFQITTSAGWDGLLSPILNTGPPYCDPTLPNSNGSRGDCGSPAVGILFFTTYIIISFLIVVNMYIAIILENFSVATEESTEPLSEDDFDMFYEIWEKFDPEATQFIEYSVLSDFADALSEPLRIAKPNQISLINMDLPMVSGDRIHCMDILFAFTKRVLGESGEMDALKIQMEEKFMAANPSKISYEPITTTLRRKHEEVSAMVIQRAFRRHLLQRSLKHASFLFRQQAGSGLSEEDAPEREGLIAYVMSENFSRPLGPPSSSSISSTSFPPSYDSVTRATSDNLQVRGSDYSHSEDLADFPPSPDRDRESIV
T1 sequence (Q15858 whole entry): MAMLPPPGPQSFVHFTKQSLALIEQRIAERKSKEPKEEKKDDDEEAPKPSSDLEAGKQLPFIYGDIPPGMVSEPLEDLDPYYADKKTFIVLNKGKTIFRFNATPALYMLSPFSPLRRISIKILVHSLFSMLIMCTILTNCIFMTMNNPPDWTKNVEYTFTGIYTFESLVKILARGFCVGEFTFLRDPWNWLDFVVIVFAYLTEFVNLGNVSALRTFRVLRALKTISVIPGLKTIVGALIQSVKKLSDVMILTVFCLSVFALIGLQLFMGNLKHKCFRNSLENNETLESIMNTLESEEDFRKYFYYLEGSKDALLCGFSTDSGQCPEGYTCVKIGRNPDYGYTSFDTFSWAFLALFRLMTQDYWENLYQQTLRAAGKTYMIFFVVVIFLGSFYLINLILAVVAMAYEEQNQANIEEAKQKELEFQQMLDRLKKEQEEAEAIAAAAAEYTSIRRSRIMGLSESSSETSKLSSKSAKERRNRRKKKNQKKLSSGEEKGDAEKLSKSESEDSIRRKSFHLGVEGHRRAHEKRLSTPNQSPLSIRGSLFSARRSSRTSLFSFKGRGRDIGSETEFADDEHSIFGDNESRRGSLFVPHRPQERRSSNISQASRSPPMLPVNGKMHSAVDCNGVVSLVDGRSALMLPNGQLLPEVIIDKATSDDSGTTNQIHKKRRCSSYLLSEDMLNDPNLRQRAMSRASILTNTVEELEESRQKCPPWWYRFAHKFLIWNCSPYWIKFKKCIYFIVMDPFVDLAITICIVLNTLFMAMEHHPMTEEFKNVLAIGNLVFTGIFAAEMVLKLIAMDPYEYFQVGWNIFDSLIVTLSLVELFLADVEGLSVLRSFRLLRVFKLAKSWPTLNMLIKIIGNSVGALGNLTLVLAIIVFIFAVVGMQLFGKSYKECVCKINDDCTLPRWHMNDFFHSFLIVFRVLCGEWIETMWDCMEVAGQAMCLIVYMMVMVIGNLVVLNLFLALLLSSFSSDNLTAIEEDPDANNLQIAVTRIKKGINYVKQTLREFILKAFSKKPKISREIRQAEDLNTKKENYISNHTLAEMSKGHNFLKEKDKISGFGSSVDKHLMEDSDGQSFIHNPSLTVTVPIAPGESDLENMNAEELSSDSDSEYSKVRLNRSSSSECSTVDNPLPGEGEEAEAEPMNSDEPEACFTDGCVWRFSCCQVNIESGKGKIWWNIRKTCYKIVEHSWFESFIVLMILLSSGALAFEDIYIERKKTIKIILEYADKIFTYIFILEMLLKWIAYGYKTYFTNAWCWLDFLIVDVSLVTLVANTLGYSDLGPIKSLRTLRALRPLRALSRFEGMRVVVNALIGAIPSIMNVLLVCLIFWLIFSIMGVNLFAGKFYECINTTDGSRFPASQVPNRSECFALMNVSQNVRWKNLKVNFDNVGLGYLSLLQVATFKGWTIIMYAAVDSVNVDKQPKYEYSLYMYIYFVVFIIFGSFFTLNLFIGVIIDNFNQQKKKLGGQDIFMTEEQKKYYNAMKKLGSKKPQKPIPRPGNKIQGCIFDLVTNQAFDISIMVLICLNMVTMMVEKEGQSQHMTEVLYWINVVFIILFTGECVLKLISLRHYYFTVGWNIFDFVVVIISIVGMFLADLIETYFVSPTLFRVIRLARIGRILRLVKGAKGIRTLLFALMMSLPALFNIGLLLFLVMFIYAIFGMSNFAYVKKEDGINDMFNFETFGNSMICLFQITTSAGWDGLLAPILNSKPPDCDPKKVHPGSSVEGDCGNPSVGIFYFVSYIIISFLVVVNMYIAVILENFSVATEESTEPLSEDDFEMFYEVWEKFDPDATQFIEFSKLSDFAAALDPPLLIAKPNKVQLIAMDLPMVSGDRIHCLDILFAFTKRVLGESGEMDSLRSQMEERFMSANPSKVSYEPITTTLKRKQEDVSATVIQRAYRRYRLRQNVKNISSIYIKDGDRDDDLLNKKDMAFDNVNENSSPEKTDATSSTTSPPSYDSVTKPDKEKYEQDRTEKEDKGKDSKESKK

Compound | IC50 (Nav 1.7 [1]) [nM] | IC50 (Nav1.5 [2]) [nM] | analgesic efficacy in FCA test ([3]; 3 mg/kg p.o.) | IC50 (Nav1.5 [4]) [nM] | analgesic efficacy in FCA test ([3]; 1 mg/kg p.o.) | IC50 (Nav 1.7 [5]) [nM]
CN(c1ccccc1)c1nc(N)nc(-c2noc(-c3ccc(OCC(F)(F)F)nc3)n2)n1 [Example 67, N-Methyl-N-phenyl-6-{5-[6-(2,2,2-trifluoroethoxy)-pyridin-3-yl]-[1,2,4]oxadiazol-3-yl}-[1,3,5]triazine-2,4-diamine] | 110 | 7060 | efficacious |  |  | 
CN(c1ccccc1)c1nc(N)nc(-c2noc(-c3nccs3)n2)n1 [Example 125, N-Methyl-N-pheny!-6-(5-thiazol-2-yl-[1,2,4]oxadiazol-3-yl)-[1,3,5]triazine-2,4-diamine] | 560 |  |  | 917 | efficacious | 
Nc1nc(Nc2ccccc2)nc(-c2noc(-c3nccs3)n2)n1 [Example 130, N-Phenyl-6-(5-thiazol-2-yl-[1,2,4]oxadiazol-3-yl)-[1,3,5]triazine2,4-diamine] | 44 | 1670 |  |  | efficacious | 
CN(c1ccccc1)c1nc(N)nc(-c2noc(-c3ccc(COCC(F)(F)F)nc3)n2)n1 [Example 291, 2-N-Methyl-2-N-phenyl-6-(5-{6-[(2,2,2-trifluoroethoxy)methyl]pyridin-3-yl}-1,2,4-oxadiazol-3-yl)-1,3,5-triazine-2,4-diamine] |  |  |  |  |  | 73
